Experiments:
57 diverse kinases = test: Kinase selectivity panel of 57 diverse kinases; assay type: biochemical; conditions: 10 µM
[1] = system: cancer cell motility and migration; test: Wound scratch assay; assay type: cell-based
[2] = system: proliferation and viability of cells; test: Trypan blue exclusion, cells treated for 3 days; assay type: cell-based; conditions: comparison against genistein at 10 µM, p < 0.05
MEK4 [3] = target: T1, MEK4 (Homo sapiens, UniProt P45985); conditions: cited from earlier work
T1 sequence (P45985 1-399): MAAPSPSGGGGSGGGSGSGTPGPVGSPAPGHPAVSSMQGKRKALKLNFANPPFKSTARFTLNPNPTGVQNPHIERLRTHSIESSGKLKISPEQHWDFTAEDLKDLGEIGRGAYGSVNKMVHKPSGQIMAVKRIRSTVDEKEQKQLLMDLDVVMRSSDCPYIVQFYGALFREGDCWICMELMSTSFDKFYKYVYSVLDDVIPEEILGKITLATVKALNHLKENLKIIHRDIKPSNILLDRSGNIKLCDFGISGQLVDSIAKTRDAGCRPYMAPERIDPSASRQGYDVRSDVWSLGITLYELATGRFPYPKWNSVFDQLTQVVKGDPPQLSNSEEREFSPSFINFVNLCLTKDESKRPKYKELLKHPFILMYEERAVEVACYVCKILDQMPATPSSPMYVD

MEK7 = target: T2, MEK7 (Homo sapiens, UniProt O14733); conditions: cited from earlier work
T2 sequence (O14733 1-419): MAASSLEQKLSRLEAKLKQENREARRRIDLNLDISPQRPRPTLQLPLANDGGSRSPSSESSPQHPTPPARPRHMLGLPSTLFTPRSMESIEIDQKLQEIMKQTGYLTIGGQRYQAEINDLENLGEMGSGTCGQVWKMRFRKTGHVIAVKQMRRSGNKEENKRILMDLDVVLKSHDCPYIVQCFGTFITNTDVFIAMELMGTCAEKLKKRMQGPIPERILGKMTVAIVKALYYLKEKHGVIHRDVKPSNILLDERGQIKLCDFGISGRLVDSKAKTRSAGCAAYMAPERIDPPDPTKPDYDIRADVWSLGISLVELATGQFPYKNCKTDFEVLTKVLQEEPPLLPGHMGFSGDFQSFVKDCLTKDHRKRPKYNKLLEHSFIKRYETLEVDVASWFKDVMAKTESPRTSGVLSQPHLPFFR

Cot = conditions: ref 10a; cited from earlier work
MEK4 [4] = target: T1, MEK4; test: TR-FRET displacement of active site tracer; assay type: binding; conditions: 10 µM

O=C(O)c1ccc(-c2n[nH]c3cc(F)ccc23)cc1 [Compound 6ff, 4-(6-fluoro-2H-indazol-3-yl)benzoic acid]
number of kinases inhibited > 35% out of 57 tested (57 diverse kinases): 12 | S(35) value (57 diverse kinases; 57 kinases): 0.21 | efficacy in wound scratch assay ([1]; 10 µM): no efficacy | efficacy in wound scratch assay ([1]; 25 µM): no efficacy | toxicity (proliferation and viability, trypan blue exclusion) [2]: less toxicity compared to the promiscuous kinase inhibitor genistein

COc1ccc2c(Cc3ccc(O[Si](C)(C)C(C)(C)C)cc3)c3[n+](cc2c1OC)CCc1cc2c(cc1-3)OCO2 [HWY336]
inhibition of MEK4 (MEK4 [3]): inhibits both MEK4 and MEK7 | inhibition of MEK7 (MEK7): inhibits both MEK4 and MEK7

O=c1c(-c2ccc(O)c(O)c2)coc2cc(O)ccc12 [THIF, 7, 3’, 4’-trihydroxyisoflavone]
inhibition of Cot activity (Cot): inhibits Cot activity

CN[C@@H]1C[C@H]2O[C@@](C)([C@@H]1OC)n1c3ccccc3c3c4c(c5c6ccccc6n2c5c31)C(=O)NC4 [staurosporine]
TR-FRET ratio, displacement of tracer bound to MEK4 active site (MEK4 [4]): background levels

Reference: article PMC6476181 (ChemMedChem, 2019)
